Laboratory results from PubChem BioAssay (NCI).
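Five concentrations, 48 hours, 96-well plates. Abbreviation: GI50, concentration required for 50% inhibition of growth. At the TGI there is no net growth.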

Assays:
Assay in all cases: inhibition of tumour cell growth, NCI panel, 48 h; in the data active = GI50 below about 0.43 µM; inactive = the rest
786-0 renal = system: 786-0 renal
A498 renal = system: A498 renal
A549 NSCLC = system: A549 NSCLC
ACHN renal = system: ACHN renal
BT-549 breast = system: BT-549 breast
CAKI-1 renal = system: CAKI-1 renal
CCRF-CEM leukemia = system: CCRF-CEM leukemia
COLO 205 colon = system: COLO 205 colon
DU-145 prostate = system: DU-145 prostate
EKVX NSCLC = system: EKVX NSCLC
HCC-2998 colon = system: HCC-2998 colon
HCT-116 colon = system: HCT-116 colon
HCT-15 colon = system: HCT-15 colon
HL-60(TB) leukemia = system: HL-60(TB) leukemia
HOP-62 NSCLC = system: HOP-62 NSCLC
HOP-92 NSCLC = system: HOP-92 NSCLC
HS 578T breast = system: HS 578T breast
HT29 colon = system: HT29 colon
IGROV1 ovarian = system: IGROV1 ovarian
K-562 leukemia = system: K-562 leukemia
KM12 colon = system: KM12 colon
LOX IMVI melanoma = system: LOX IMVI melanoma
M14 melanoma = system: M14 melanoma
MALME-3M melanoma = system: MALME-3M melanoma
MCF7 breast = system: MCF7 breast
MDA-MB-231 breast = system: MDA-MB-231 breast
MDA-MB-435 = system: MDA-MB-435
MDA-MB-468 breast = system: MDA-MB-468 breast
MOLT-4 leukemia = system: MOLT-4 leukemia
NCI-H226 lung = system: NCI-H226 lung
NCI-H23 lung = system: NCI-H23 lung
NCI-H460 lung = system: NCI-H460 lung
NCI-H522 lung = system: NCI-H522 lung
NCI/ADR-RES ovarian = system: NCI/ADR-RES ovarian
OVCAR-3 ovarian = system: OVCAR-3 ovarian
OVCAR-4 ovarian = system: OVCAR-4 ovarian
OVCAR-5 ovarian = system: OVCAR-5 ovarian
OVCAR-8 ovarian = system: OVCAR-8 ovarian
PC-3 prostate = system: PC-3 prostate
RPMI-8226 leukemia = system: RPMI-8226 leukemia
RXF 393 renal = system: RXF 393 renal
SF-268 CNS = system: SF-268 CNS
SF-295 CNS = system: SF-295 CNS
SF-539 CNS = system: SF-539 CNS
SK-MEL-2 melanoma = system: SK-MEL-2 melanoma
SK-MEL-28 melanoma = system: SK-MEL-28 melanoma
SK-MEL-5 melanoma = system: SK-MEL-5 melanoma
SK-OV-3 ovarian = system: SK-OV-3 ovarian
SN12C renal = system: SN12C renal
SNB-19 CNS = system: SNB-19 CNS
SNB-75 CNS = system: SNB-75 CNS
SW-620 colon = system: SW-620 colon
T-47D breast = system: T-47D breast
TK-10 renal = system: TK-10 renal
U251 CNS = system: U251 CNS
UACC-257 melanoma = system: UACC-257 melanoma
UACC-62 melanoma = system: UACC-62 melanoma
UO-31 renal = system: UO-31 renal

Cn1cc(NC(=O)c2cc(NC(=O)c3ccc(/C=C/c4ccccc4)cc3)cn2C)cc1C(=O)NCCCN1CCOCC1
19.6 µM: TGI (HT29 colon)
25.2 µM: TGI (NCI-H522 lung)
16.5 µM: TGI (SF-539 CNS)
18.7 µM: TGI (SW-620 colon)
14.9 µM: TGI (HOP-92 NSCLC)
24.2 µM: TGI (NCI/ADR-RES ovarian)
> 28 µM: TGI (786-0 renal) | TGI (A498 renal) | TGI (A549 NSCLC) | TGI (ACHN renal) | TGI (CAKI-1 renal) | TGI (CCRF-CEM leukemia) | TGI (COLO 205 colon) | TGI (DU-145 prostate) | TGI (EKVX NSCLC) | TGI (HCC-2998 colon) | TGI (HCT-116 colon) | TGI (HCT-15 colon) | TGI (HL-60(TB) leukemia) | TGI (HOP-62 NSCLC) | TGI (HS 578T breast) | TGI (IGROV1 ovarian) | TGI (KM12 colon) | TGI (M14 melanoma) | TGI (MALME-3M melanoma) | TGI (MCF7 breast) | TGI (MDA-MB-231 breast) | TGI (MDA-MB-435) | TGI (MOLT-4 leukemia) | TGI (NCI-H226 lung) | TGI (NCI-H23 lung) | TGI (NCI-H460 lung) | TGI (OVCAR-3 ovarian) | TGI (OVCAR-4 ovarian) | TGI (OVCAR-5 ovarian) | TGI (OVCAR-8 ovarian) | TGI (PC-3 prostate) | TGI (RPMI-8226 leukemia) | TGI (SF-268 CNS) | TGI (SF-295 CNS) | TGI (SK-MEL-28 melanoma) | TGI (SK-MEL-5 melanoma) | TGI (SK-OV-3 ovarian) | TGI (SN12C renal) | TGI (SNB-19 CNS) | TGI (T-47D breast) | TGI (TK-10 renal) | TGI (U251 CNS) | TGI (UACC-257 melanoma) | TGI (UACC-62 melanoma) | TGI (UO-31 renal)
18 µM: TGI (RXF 393 renal)
inactive: GI50 (786-0 renal) 8.59 µM | GI50 (A498 renal) > 28 µM | GI50 (A549 NSCLC) > 28 µM | GI50 (ACHN renal) 18.6 µM | GI50 (BT-549 breast) 4.84 µM | GI50 (CAKI-1 renal) 15.3 µM | GI50 (CCRF-CEM leukemia) 5.74 µM | GI50 (COLO 205 colon) > 28 µM | GI50 (DU-145 prostate) 10.1 µM | GI50 (EKVX NSCLC) 16.6 µM | GI50 (HCC-2998 colon) 16.6 µM | GI50 (HCT-116 colon) 7.39 µM | GI50 (HCT-15 colon) 7.41 µM | GI50 (HL-60(TB) leukemia) 7.49 µM | GI50 (HOP-62 NSCLC) 9.43 µM | GI50 (HOP-92 NSCLC) 3.15 µM | GI50 (HS 578T breast) 6.14 µM | GI50 (HT29 colon) 4.85 µM | GI50 (IGROV1 ovarian) > 28 µM | GI50 (K-562 leukemia) 4.79 µM | GI50 (KM12 colon) 8.07 µM | GI50 (LOX IMVI melanoma) 4.59 µM | GI50 (M14 melanoma) 14.7 µM | GI50 (MALME-3M melanoma) 13.8 µM | GI50 (MCF7 breast) 3.57 µM | GI50 (MDA-MB-231 breast) 9.18 µM | GI50 (MDA-MB-435) 8.59 µM | GI50 (MDA-MB-468 breast) 5.88 µM | GI50 (MOLT-4 leukemia) 7.96 µM | GI50 (NCI-H226 lung) 24.1 µM | GI50 (NCI-H23 lung) 13.4 µM | GI50 (NCI-H460 lung) 9.62 µM | GI50 (NCI-H522 lung) 6.56 µM | GI50 (NCI/ADR-RES ovarian) 7.31 µM | GI50 (OVCAR-3 ovarian) 6.82 µM | GI50 (OVCAR-4 ovarian) > 28 µM | GI50 (OVCAR-5 ovarian) > 28 µM | GI50 (OVCAR-8 ovarian) 7.21 µM | GI50 (PC-3 prostate) 13 µM | GI50 (RPMI-8226 leukemia) 3.35 µM | GI50 (RXF 393 renal) 2.08 µM | GI50 (SF-268 CNS) 21.5 µM | GI50 (SF-295 CNS) 17.8 µM | GI50 (SF-539 CNS) 5.8 µM | GI50 (SK-MEL-2 melanoma) 4.94 µM | GI50 (SK-MEL-28 melanoma) > 28 µM | GI50 (SK-MEL-5 melanoma) 14 µM | GI50 (SK-OV-3 ovarian) > 28 µM | GI50 (SN12C renal) 5.28 µM | GI50 (SNB-19 CNS) > 28 µM | GI50 (SNB-75 CNS) 4.42 µM | GI50 (SW-620 colon) 6.89 µM | GI50 (T-47D breast) 5.59 µM | GI50 (TK-10 renal) 15.1 µM | GI50 (U251 CNS) 10.5 µM | GI50 (UACC-257 melanoma) 19.2 µM | GI50 (UACC-62 melanoma) 21.2 µM | GI50 (UO-31 renal) 15.2 µM
18.5 µM: TGI (MDA-MB-468 breast)
26.3 µM: TGI (SNB-75 CNS)
9.32 µM: TGI (LOX IMVI melanoma)
16.3 µM: TGI (SK-MEL-2 melanoma)
18.4 µM: TGI (BT-549 breast)
16.1 µM: TGI (K-562 leukemia)
